Laboratory results as given in PMC2962730 (Journal of neurochemistry, 2010).
Changes are numbered by the printed parent chain.

What was measured:
VAChT F335A = conditions: ref Ojeda et al. (2004); cited from earlier work
hVAChT Y60H = molecular target: T1, hVAChT Y60H (Homo sapiens, UniProt Q16572, Y60H); assay: [3H]vesamicol saturation binding; conditions: pH 7.4
T1 sequence (Q16572 1-532 Y60H): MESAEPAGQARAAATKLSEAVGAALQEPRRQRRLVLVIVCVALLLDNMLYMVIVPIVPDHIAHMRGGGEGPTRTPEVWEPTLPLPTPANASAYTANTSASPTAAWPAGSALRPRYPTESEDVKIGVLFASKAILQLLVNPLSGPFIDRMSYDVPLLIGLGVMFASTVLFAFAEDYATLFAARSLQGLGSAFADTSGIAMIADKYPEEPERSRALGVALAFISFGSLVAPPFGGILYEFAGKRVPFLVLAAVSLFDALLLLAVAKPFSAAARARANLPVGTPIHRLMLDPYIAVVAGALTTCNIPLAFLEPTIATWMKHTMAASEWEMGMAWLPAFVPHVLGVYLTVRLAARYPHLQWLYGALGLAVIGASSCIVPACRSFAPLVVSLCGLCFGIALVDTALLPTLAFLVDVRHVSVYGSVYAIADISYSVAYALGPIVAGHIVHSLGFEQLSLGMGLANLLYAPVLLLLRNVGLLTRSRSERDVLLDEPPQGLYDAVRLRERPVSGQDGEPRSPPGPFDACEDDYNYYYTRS

hVAChT W331L = molecular target: T2, hVAChT W331L (Homo sapiens, UniProt Q16572, W331L); assay: [3H]vesamicol saturation binding; conditions: pH 7.4
T2 sequence (Q16572 1-532 W331L): T1 sequence (Q16572 1-532 Y60H) with H60Y, W331L

[1] = test system: rat VAChT (rVAChT) W331 mutants; conditions: mutations of W331 in rVAChT; ref Ojeda et al. 2004; cited from earlier work
hVAChT C388A = molecular target: T3, hVAChT C388A (Homo sapiens, UniProt Q16572, C388A); assay: ACh equilibrium binding by competition against [3H]vesamicol
T3 sequence (Q16572 1-532 C388A): T1 sequence (Q16572 1-532 Y60H) with H60Y, C388A

hVAChT M316A = molecular target: T4, hVAChT M316A (Homo sapiens, UniProt Q16572, M316A); assay: as above
T4 sequence (Q16572 1-532 M316A): T1 sequence (Q16572 1-532 Y60H) with H60Y, M316A

hVAChT wild-type = molecular target: T5, hVAChT wild-type (Homo sapiens, UniProt Q16572); assay: as above; conditions: WT hVAChT; pH 7.4
T5 sequence (Q16572 1-532): T1 sequence (Q16572 1-532 Y60H) with H60Y

Kd (hVAChT C388A) | FHA, fraction of the ACh sites that have high affinity (hVAChT C388A; C388A hVAChT, pH 7.4) | Kd (hVAChT M316A) | FHA, fraction of the ACh sites that have high affinity (hVAChT M316A; M316A hVAChT, pH 7.4) | FHA, fraction of the ACh sites that have high affinity (hVAChT wild-type) | Compound | weaker binding of vesamicol (VAChT F335A) | Bmax, maximal specific [3H]vesamicol binding (VAChT expression level) (hVAChT Y60H) | Bmax, maximal specific [3H]vesamicol binding (VAChT expression level) (hVAChT W331L) | decrease in ACh affinity (equilibrium) [1]
– | – | – | – | – | O[C@@H]1CCCC[C@H]1N1CCC(c2ccccc2)CC1 (racemic) [vesamicol, ( )-trans-2-(4-phenylpiperidino)cyclohexanol] | ~ 3 fold | 15 ± 1 pmol/mg | 14 ± 1 pmol/mg | –
17 ± 4 mM | 0.88 ± 0.08 | 8.3 ± 0.7 mM | 0.74 ± 0.03 | 0.82 ± 0.04 | CC(=O)OCC[N+](C)(C)C [ACh, acetylcholine] | – | – | – | ≤ 9 fold
